From patent US6417235B2, “Method and use of α-amino-β-mercapto-ethane derivatives as dicarbonyl scavengers for treatment of conditions resulting from protein, lipid, and DNA damage” (University of Kentucky Research Foundation, priority 2000, dated 2002)

System: glycation of histone H1 by ADP-ribose
Assay: Screening of inhibitors of nonoxidative advanced glycation: AGE-fluorescence on 96 well-microtiter plate
Format: biochemical, calf
Conditions: (± SEM, n = 2); for AGE-fluorescence (day 5): complete reaction under air
Experimental: All operations were carried out at 4° C. Chromatin was isolated from fresh calf thymus by extraction with 0.14 M NaCl, 0.05 M Na2S2O5, as described earlier in Wondrak supra. After repeated extraction with 5% HCl)4 and centrifugation (1500 g), histone H1 was precipitated from the supernatant by addition of TCA (20% final concentration v/v). The histone H1 precipitate was colleted by centrifugation (12,000 g) and deionized water. After extensive dialysis (MW cut-off: 12,000-14,000) against water for 48 h, the sample was lyophilized and the protein was stored at 4° C. SDS-PAGE (12%) was used to analyze the purity of the preparation.
Earlier studies have reported that D-penicillamine inhibits collagen crosslinking and AGE fluorescence caused by sugars (McPherson, J. D., Shilton, B. H., and Walton, D. J. 1988. Role of Fructose in Glycation and Cross-Linking of Proteins. Biochemistry 27, 1901-1907) and reaction of D-penicillamine with aldehyde groups of proteins (Deshmukh, K., and Nimm, M. E. 1969. A Defect in the Intramolecular and Intermolecular Cross-linking of Collagen caused by Penicillamine. J. Biol. Chem. 244, 1787-1795). A number of different penicillamines and penicillamine derivatives were tested to determine the inhibition of AGE-fluorescence on histone H1 at physiological pH. The reaction conditions for the glycation of histone H1 by ADP-ribose mimic physiological conditions to the extent possible. Reaction mixtures contain 1.5 mg/ml histone Hl, 1.0 mM ADP-ribose, 50 mM potassium phosphate buffer, pH 7.4, 37° C. D,L-penicillamine; L-penicillamine; D-penicllamine; D-penicillaminedisulfide and N,S- isopropylidine-D-penicillamine were tested in concentrations of 1,5 and 10 mM. The detected reaction parameter representing the accumulation of protein damage is AGE-fluorescence ((λex=[…]), which is suppressed by the presence of a compound with inhibitory activity. Generation of AGE-type fluorescence (λex=355 nm; λem=405 nm) was monitored over time at 37° C; which is in the range of the broad excitation/emission maxima of AGE compounds. To allow high throughput sample processing on 96 well microtiter plates, the reaction volumes are 300 μl. Fluorescence on the 96-well microtiter plates was measured using an automated microtiter fluorescence reader. Fluorescence of the 1 ml samples of the glycation reaction mixtures was measured using a Hitachi F-200 fluorescence spectophotometer, and prior to measurement the protein sample is dialyzed extensively against water (MW cutoff=[…]), lyophilized and reconstituted in reaction buffer. For inhibitor screening the plate is read on a Fluoroskan II plate reader (Titertek, ICN) at the excitation/emission wavelengths set forth above at a bandwidth of 35 nm.
The following screening scheme is used (see Table 1): AGE-fluorescence is determined at the beginning and after five days of incubation. Test compounds that are inherently fluorescent (designated false negatives) were identified by the initial fluorescence measurement (See Table 1, NADH for example). Since these are compounds of uncertain activity, they are diverted directly to the second stage of the screen. Aminoguanidine, a known glycation inhibitory agent, was used as a positive control for suppression of the increase on AGE-fluorescence. After five days incubation and plate reading, fluorescence quenchers (designated false positives) are excluded by measuring the quenching activity of the test compound by addition of AGE modified protein having known fluorescence activity to one microtiter plate well containing test compound in the complete reaction mixture. For this, AGE-BSA is used as the AGE-type fluorescence standard. This AGE-BSA test excludes false positives compounds that function by fluorescence quenching. If fluorescence quenching occurs the test compound is excluded from further screening. […] The protein is visualized by silver staining of the gel. […]

CC(C)(S)[C@@H](N)C(=O)O [D-Penicillamine]
AGE-fluorescence (day 0) (compound 1 mM): 1.2 (0.0) relative units
AGE-fluorescence (day 5) (compound 1 mM): 11 (0.6) relative units
AGE-fluorescence (day 0) (compound 5 mM): 1.1 (0.1) relative units
AGE-fluorescence (day 5) (compound 5 mM): 2.9 (0.3) relative units
AGE-fluorescence (day 0) (compound 10 mM): 1.1 (0.0) relative units
AGE-fluorescence (day 5) (compound 10 mM): 1.4 (0.1) relative units
